The values that follow come from patent US12325697B2 (Nimbus Clio, Inc., priority 2021, dated 2025).

The IC50 is the concentration at which inhibition is half-maximal.

Molecules are shown by their SMILES.

Assay [1] addresses Recombinant human c-Cbl (aa 47-435) (Homo sapiens (Human), UniProt P22681). Put plainly: c-Cbl Biochemical Assay (TR-FRET). Summed up: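 TR-FRET binding of UBE2D2-Ub-Bodipy (100 nM) to biotinylated c-Cbl (aa 47-435, 6 nM) via Streptavidin-Tb, measured after c-Cbl activation by Src-Zap70 with 0.5 mM ATP (60-90 min RT, 30 min compound preincubation). Ten-point half-log dilutions, 1% DMSO; IC50 by 4-parameter fit of normalized inhibition.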
(In general: Time-resolved FRET reads energy transfer from a long-lived donor to a nearby acceptor.)

The target in assay [2] is Recombinant human Cbl-b (aa 36-427) (Homo sapiens (Human), UniProt Q13191). The assay is described as follows: Cbl-b Biochemical Assay (TR-FRET). Particulars: read-out: TR-FRET hCbl-b IC50. The method, boiled down: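 IC50 from 4-parameter fit of % inhibition (DMSO max, reference-inhibitor min), duplicate ten-point series. Compound preincubated with 6 nM Cbl-b, then Src-Zap70 (1-2.5 nM)/0.5 mM ATP reaction 60 min RT; EDTA quench with labelled UBE2D2-Ub and streptavidin-terbium, 60 min, HTRF at 520 nm.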
Sequence of Recombinant human Cbl-b (aa 36-427) (Q13191 36-427): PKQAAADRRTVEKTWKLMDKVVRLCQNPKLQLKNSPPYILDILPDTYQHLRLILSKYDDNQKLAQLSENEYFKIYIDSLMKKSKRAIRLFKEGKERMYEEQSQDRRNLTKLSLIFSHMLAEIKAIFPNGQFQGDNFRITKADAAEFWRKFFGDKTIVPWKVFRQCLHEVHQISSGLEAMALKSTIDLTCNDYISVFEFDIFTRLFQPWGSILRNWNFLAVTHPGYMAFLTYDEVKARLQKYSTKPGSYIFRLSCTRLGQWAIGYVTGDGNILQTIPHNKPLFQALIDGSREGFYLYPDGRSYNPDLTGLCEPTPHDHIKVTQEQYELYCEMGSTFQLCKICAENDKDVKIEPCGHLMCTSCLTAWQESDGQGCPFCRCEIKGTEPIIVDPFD

Sequence of Recombinant human c-Cbl (aa 47-435) (P22681 47-435): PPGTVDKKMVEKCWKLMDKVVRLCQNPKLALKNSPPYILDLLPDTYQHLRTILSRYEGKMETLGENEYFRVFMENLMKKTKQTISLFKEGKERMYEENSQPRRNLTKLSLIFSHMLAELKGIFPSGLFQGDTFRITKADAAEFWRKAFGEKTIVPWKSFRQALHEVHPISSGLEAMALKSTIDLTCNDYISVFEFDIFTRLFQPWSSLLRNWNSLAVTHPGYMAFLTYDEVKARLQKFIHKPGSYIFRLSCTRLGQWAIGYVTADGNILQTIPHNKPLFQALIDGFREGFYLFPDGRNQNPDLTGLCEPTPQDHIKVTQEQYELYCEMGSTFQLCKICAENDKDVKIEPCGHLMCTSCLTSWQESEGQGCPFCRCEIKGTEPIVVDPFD

With `Cn1cnnc1-c1cc(C#N)ccc1-c1cc(C2CC2)nc(N2Cc3c(F)cc(CN[C@@]4(C)COC[C@H]4O)cc3C2=O)c1` (stereo in doubt) [AOG-1, 4-[2-Cyclopropyl-6-(4-fluoro-6-{[(4-hydroxy-3-methyloxolan-3-yl)amino]methyl}-1-oxo-3H-isoindol-2-yl)pyridin-4-yl]-3-(4-methyl-1,2,4-triazol-3-yl)benzonitrile], the IC50 in assay [1] and in assay [2] was at most 200 nM in each case.
For the compound `C[C@@H](NCc1ccc2c(c1)C(=O)N(c1cc(-c3ccc(C#N)cc3-c3nncn3C)cc(C3CC3)n1)C2)C1COC1` [ANJ-2, (R)-4-(2-Cyclopropyl-6-(6-(((1-(oxetan-3-yl)ethyl)amino)methyl)-1-oxoisoindolin-2-yl)pyridin-4-yl)-3-(4-methyl-4H-1,2,4-triazol-3-yl)benzonitrile], the half-inhibitory concentration (IC50) in assay [1] and in assay [2] was at most 200 nM throughout.
Consider `Cn1cnnc1-c1cc(C#N)ccc1-c1cc(C2CC2)nc(N2Cc3ccc(CNCC4(F)CCC4)cc3C2=O)c1` [AJX-1, 4-{2-Cyclopropyl-6-[6-({[(1-fluorocyclobutyl)methyl]amino}methyl)-1-oxo-3H-isoindol-2-yl]pyridin-4-yl}-3-(4-methyl-1,2,4-triazol-3-yl)benzonitrile], for which the IC50 in assay [1] and in assay [2] was at most 200 nM in each case.
With `C[C@H](NC1COC1)c1ccc2c(c1)C(=O)N(c1cc(-c3ccc(C#N)cc3-c3nncn3C)cc(C3CC3)n1)C2` [AOB-2, (S)-4-(2-Cyclopropyl-6-(6-(1-(oxetan-3-ylamino)ethyl)-1-oxoisoindolin-2-yl)pyridin-4-yl)-3-(4-methyl-4H-1,2,4-triazol-3-yl)benzonitrile], the half-inhibitory concentration (IC50) in assay [1] and in assay [2] was at most 200 nM throughout.
`COc1cc2c(cc1CO)C(=O)N(c1cc(-c3ccc(C#N)cc3-c3nncn3C)cc(C3CC3)n1)C2` [AKL-2, 4-{2-Cyclopropyl-6-[6-(hydroxymethyl)-5-methoxy-1-oxo-3H-isoindol-2-yl]pyridin-4-yl}-3-(4-methyl-1,2,4-triazol-3-yl)benzonitrile]: the IC50 in assay [1] and in assay [2] was at most 200 nM in each case.
For the compound `COC[C@H]1CCN1Cc1cc(F)c2c(c1)C(=O)N(c1cc(-c3ccc(C#N)cc3-c3nncn3C)cc(C3CC3)n1)C2` [AOW-2, 4-[2-Cyclopropyl-6-(4-fluoro-6-{[(2R)-2-(methoxymethyl)azetidin-1-yl]methyl}-1-oxo-3H-isoindol-2-yl)pyridin-4-yl]-3-(4-methyl-1,2,4-triazol-3-yl)benzonitrile], the IC50 in assay [1] and in assay [2] was at most 200 nM in each case.
Regarding `Cn1cnnc1-c1cc(C#N)ccc1-c1cc(C2CC2)nc(N2Cc3c(F)cc(CN[C@@H]4COC[C@@H]4O)cc3C2=O)c1` [ALI-2, 4-{2-Cyclopropyl-6-[4-fluoro-6-({[(3R,4R)-4-hydroxyoxolan-3-yl]amino}methyl)-1-oxo-3H-isoindol-2-yl]pyridin-4-yl}-3-(4-methyl-1,2,4-triazol-3-yl)benzonitrile], the IC50 in assay [1] and in assay [2] was at most 200 nM each time.
As for `C[C@H]1CCCN(Cc2cc(F)c3c(c2)C(=O)N(c2cc(-c4ccc(C#N)cc4-c4nncn4C)cc(C4CC4)n2)C3)C1` [AKY-1, 4-[2-Cyclopropyl-6-(4-fluoro-6-{[(3S)-3-methylpiperidin-1-yl]methyl}-1-oxo-3H-isoindol-2-yl)pyridin-4-yl]-3-(4-methyl-1,2,4-triazol-3-yl)benzonitrile], the IC50 in assay [1] and in assay [2] was at most 200 nM in each case.
Regarding `CO[C@@H](C)CNCc1ccc2c(c1)C(=O)N(c1cc(-c3ccc(C#N)cc3-c3nncn3C)cc(C3CC3)n1)C2` [AIM-2, 4-{2-cyclopropyl-6-[6-({[(2S)-2-methoxypropyl]amino}methyl)-1-oxo-3H-isoindol-2-yl]pyridin-4-yl}-3-(4-methyl-1,2,4-triazol-3-yl) benzonitrile], the IC50 in assay [1] and in assay [2] was at most 200 nM each time.
For the compound `Cn1cnnc1-c1cc(C#N)ccc1-c1cc(C2CC2)nc(N2Cc3ccc(CNC4COC4)cc3C2=O)c1` [AMV-2, 4-(2-Cyclopropyl-6-{6-[(oxetan-3-ylamino)methyl]-1-oxo-3H-isoindol-2-yl}pyridin-4-yl)-3-(4-methyl-1,2,4-triazol-3-yl)benzonitrile], the IC50 in assay [1] and in assay [2] was at most 200 nM throughout.
For the compound `Cn1cnnc1-c1cc(C#N)ccc1-c1cc(C2CC2)nc(N2Cc3ccc(CNCC4(C)COC4)cc3C2=O)c1` [AMU-2, 4-{2-Cyclopropyl-6-[6-({[(3-methyloxetan-3-yl)methyl]amino}methyl)-1-oxo-3H-isoindol-2-yl]pyridin-4-yl}-3-(4-methyl-1,2,4-triazol-3-yl)benzonitrile], the 50% inhibitory concentration (IC50) in assay [1] and in assay [2] was at most 200 nM each time.
`CN(Cc1cc(F)c2c(c1)C(=O)N(c1cc(-c3ccc(C#N)cc3-c3nncn3C)cc(C3CC3)n1)C2)C1CC1` [AMQ-2, 4-[2-Cyclopropyl-6-(6-{[cyclopropyl(methyl)amino]methyl}-4-fluoro-1-oxo-3H-isoindol-2-yl)pyridin-4-yl]-3-(4-methyl-1,2,4-triazol-3-yl)benzonitrile]: the IC50 in assay [1] and in assay [2] was at most 200 nM throughout.
`COC1(CNCc2ccc3c(c2)C(=O)N(c2cc(-c4ccc(C#N)cc4-c4nncn4C)cc(C4CC4)n2)C3)CCCC1` [AKE-2, 4-{2-Cyclopropyl-6-[6-({[(1-methoxycyclopentyl)methyl]amino}methyl)-1-oxo-3H-isoindol-2-yl]pyridin-4-yl}-3-(4-methyl-1,2,4-triazol-3-yl)benzonitrile]: the IC50 in assay [1] and in assay [2] was at most 200 nM in each case.
In the case of `Cn1cnnc1-c1cc(C#N)ccc1-c1cc(C2CC2)nc(N2Cc3ccc(CNC4CCC4)cc3C2=O)c1` [ANI-2, 4-(2-{6-[(Cyclobutylamino)methyl]-1-oxo-3H-isoindol-2-yl}-6-cyclopropylpyridin-4-yl)-3-(4-methyl-1,2,4-triazol-3-yl)benzonitrile], the IC50 in assay [1] and in assay [2] was at most 200 nM throughout.
Consider `CN(Cc1cc(F)c2c(c1)C(=O)N(c1cc(-c3ccc(F)cc3-c3nncn3C)cc(C3CC3)n1)C2)CC1(O)CCC1` [AML-1, 2-{6-Cyclopropyl-4-[4-fluoro-2-(4-methyl-1,2,4-triazol-3-yl)phenyl]pyridin-2-yl}-4-fluoro-6-({[(1-hydroxycyclobutyl)methyl](methyl)amino}methyl)-3H-isoindol-1-one], for which the IC50 in assay [1] and in assay [2] was at most 200 nM each time.
Consider `C[C@@H](NCC1COC1)c1ccc2c(c1)C(=O)N(c1cc(-c3ccc(C#N)cc3-c3nncn3C)cc(C3CC3)n1)C2` [ANN-2, (R)-4-(2-Cyclopropyl-6-(6-(1-((oxetan-3-ylmethyl)amino)ethyl)-1-oxoisoindolin-2-yl)pyridin-4-yl)-3-(4-methyl-4H-1,2,4-triazol-3-yl)benzonitrile], for which the IC50 in assay [1] and in assay [2] was at most 200 nM in each case.
Turning to `Cn1cnnc1-c1cc(C#N)ccc1-c1cc(C2CC2)nc(N2Cc3ccc(COCC4CCCC4)cc3C2=O)c1` [AIS-2, 4-(2-{6-[(cyclopentylmethoxy)methyl]-1-oxo-3H-isoindol-2-yl}-6-cyclopropylpyridin-4-yl)-3-(4-methyl-1,2,4-triazol-3-yl)benzonitrile], the IC50 in assay [1] and in assay [2] was at most 200 nM in each case.
For the compound `Cn1cnnc1-c1cc(C#N)ccc1-c1cc(C2CC2)nc(N2Cc3c(F)cc(CN4C[C@@]5(C)C[C@@H]4CO5)cc3C2=O)c1` [ANV-1, 4-(2-Cyclopropyl-6-(4-fluoro-6-(((1R,4R)-1-methyl-2-oxa-5-azabicyclo[2.2.1]heptan-5-yl)methyl)-1-oxoisoindolin-2-yl)pyridin-4-yl)-3-(4-methyl-4H-1,2,4-triazol-3-yl)benzonitrile], the half-maximal inhibitory concentration (IC50) in assay [1] and in assay [2] was at most 200 nM each time.
In the case of `CCC1(NCc2cc3c(c(C(F)(F)F)c2)CN(c2cc(-c4ccc(C#N)cc4-c4nncn4C)cc(C4CC4)n2)C3=O)CC1` [AKU-2, 4-[2-Cyclopropyl-6-(6-{1[(1-ethylcyclopropyl)amino]methyl}-1-oxo-4-(trifluoromethyl)-3H-isoindol-2-yl)pyridin-4-yl]-3-(4-methyl-1,2,4-triazol-3-yl)benzonitrile], the IC50 in assay [1] and in assay [2] was at most 200 nM each time.
Turning to `COC(C)(C)CNCc1ccc2c(c1)C(=O)N(c1cc(-c3ccc(C#N)cc3-c3nncn3C)cc(C3CC3)n1)C2` [AIW-2, 4-[2-Cyclopropyl-6-(6-{[(2-methoxy-2-methylpropyl)amino]methyl}-1-oxo-3H-isoindol-2-yl)pyridin-4-yl]-3-(4-methyl-1,2,4-triazol-3-yl)benzonitrile], the IC50 in assay [1] and in assay [2] was at most 200 nM throughout.
Consider `Cn1cnnc1-c1cc(C#N)ccc1-c1cc(C2CC2)nc(N2Cc3c(F)cc(CNCC4CC4)cc3C2=O)c1` [AMC-2, 4-[2-Cyclopropyl-6-(6-{[(cyclopropylmethyl)amino]methyl}-4-fluoro-1-oxo-3H-isoindol-2-yl)pyridin-4-yl]-3-(4-methyl-1,2,4-triazol-3-yl)benzonitrile], for which the IC50 in assay [1] and in assay [2] was at most 200 nM in each case.
For `Cn1cnnc1-c1cc(C#N)ccc1-c1cc(C2CC2)nc(N2Cc3c(F)cc(CN4C[C@@H]5C[C@H]4CO5)cc3C2=O)c1` [AKR-3, 4-(2-Cyclopropyl-6-{4-fluoro-6-[(1S,4S)-2-oxa-5-azabicyclo[2.2.1]heptan-5-ylmethyl]-1-oxo-3H-isoindol-2-yl}pyridin-4-yl)-3-(4-methyl-1,2,4-triazol-3-yl)benzonitrile], the IC50 in assay [1] and in assay [2] was at most 200 nM throughout.
